Test results from patent US20260014232A1, “Pharmaceutical Composition of GLP-1 and GIP Receptor Dual Agonist and Use Thereof” (Jiangsu Hengrui Pharmaceuticals Co., Ltd., priority 2021, published 2026).
Starred links: 1 amine or outer side, 2 acyl side, 3 side chain; linkers in the order of their positions; H or OH if unused. Non-standard residues stand in square brackets, D forms with d. Residues, ends and D or L forms follow the SMILES beside them. Groups on a side chain read outwards from the residue. *: point of attachment. C20 diacid = O=C(O)CCCCCCCCCCCCCCCCCCC(=O)*; γGlu = O=C(O)[C@H](CCC(=O)[*:2])N[*:1]; AEEA = NCCOCCOCC(=O)O; Aib = CC(C)(N)C(=O)O

Tests used:
[1] = Glucose metabolism level of db/db mice (fasting and random blood glucose, glycated hemoglobin); assay type: in vivo, C57BL/KsJ-db/db mice; conditions: for Glycated hemoglobin: end of experiment day 28, mean ± SD
Protocol: Each administration group had 10 db/db mice. According to the experimental design, tail vein blood was collected by needle pricking on days 0, 7, 14, 21, and 28 and determined for fasting blood glucose levels with a glucometer and glucose dipsticks, and the mice were fasted 6 h prior to the blood collection at each time point. Tail vein blood was collected by needle pricking on days 3, 10, 17, 24, and 27 and randomly determined for blood glucose levels with a glucometer. Finally, at the end of the experiment on day 28, all the animals in the administration groups were subjected to 2-5% isoflurane inhalation anesthesia, and 100 μL of whole blood was collected through the orbit of each mouse using an EDTA-K2 anticoagulation tube and used for the determination of glycated hemoglobin.

[2] = Food intake of diet-induced-obesity (DIO) mice; assay type: in vivo, C57BL/6 mice
Protocol: High-fat food-induced-obesity male C57BL/6 mice (weighing 35-55 g, aged 10-12 weeks, purchased from Shanghai Jiesijie Laboratory Animal Co., Ltd.) were tested. […] According to the experimental design, the body weight of each mouse was measured and recorded on day 0, day 3, day 6, and so on to day 27, the average body weight of each group of mice was calculated, and body weight change curves were plotted by taking the body weight on the first day as the standard. At the end, the fat and other visceral organs of each part of the mice were taken out and weighed, and the viscera/brain ratio for fat in each part of each mouse was calculated. The effect of the drug on the fat was determined by comparing the change in the viscera/brain ratio for fat of different parts of each group of mice.
The food intake of mice in each group was measured daily during the experiment.

[3] = 10 nmol/kg s.c., Day 0, mean ± SD
[4] = 30 nmol/kg s.c., Day 0, mean ± SD
[5] = 100 nmol/kg s.c., Day 0, mean ± SD

## CC[C@H](C)[C@H](NC(=O)[C@H](CCCCN)NC(=O)[C@H](CCC(=O)O)NC(=O)[C@H](CCCCNC(=O)COCCOCCNC(=O)COCCOCCNC(=O)CC[C@H](NC(=O)CCCCCCCCCCCCCCCCCCC(=O)O)C(=O)O)NC(=O)[C@H](Cc1ccc(O)cc1)NC(=O)[C@@H](NC(=O)[C@H](CO)NC(=O)[C@H](Cc1ccc(O)cc1)NC(=O)[C@H](CC(=O)O)NC(=O)[C@H](CO)NC(=O)[C@@H](NC(=O)[C@H](Cc1ccccc1)NC(=O)[C@@H](NC(=O)CNC(=O)[C@H](CCC(=O)O)NC(=O)C(C)(C)NC(=O)[C@@H](N)Cc1ccc(O)cc1)[C@@H](C)O)[C@@H](C)O)[C@@H](C)CC)C(=O)N[C@@H](C)C(=O)N[C@@H](C)C(=O)N[C@@H](CCC(N)=O)C(=O)N[C@@H](CCC(=O)O)C(=O)N[C@@H](Cc1ccccc1)C(=O)N[C@H](C(=O)N[C@@H](CC(N)=O)C(=O)N[C@@H](Cc1c[nH]c2ccccc12)C(=O)N[C@@H](CC(C)C)C(=O)N[C@@H](CC(C)C)C(=O)N[C@@H](C)C(=O)NCC(=O)NCC(=O)N1CCC[C@H]1C(=O)N[C@@H](CO)C(=O)N[C@@H](CO)C(=O)NCC(=O)N[C@@H](C)C(=O)N1CCC[C@H]1C(=O)N1CCC[C@H]1C(=O)N1CCC[C@H]1C(=O)N[C@@H](CO)C(N)=O)C(C)C [Compound 18#] (H-Y[Aib]EGTFTSDYSIYK([AEEA-AEEA-γGlu-C20 diacid])EKIAAQEFVNWLLAGGPSSGAPPPS-NH2)
[1]; [3]
  Concentration of fasting blood glucose: 14.77 ± 1.30 mmol/L
  Concentration of random blood glucose: 20.42 ± 1.56 mmol/L
[1]; 10 nmol/kg s.c., Day 7, mean ± SD
  Concentration of fasting blood glucose: 6.05 ± 0.42 mmol/L
[1]; 10 nmol/kg s.c., Day 10, mean ± SD
  Concentration of random blood glucose: 20.66 ± 1.48 mmol/L
[1]; 10 nmol/kg s.c., Day 14, mean ± SD
  Concentration of fasting blood glucose: 6.30 ± 0.46 mmol/L
[1]; 10 nmol/kg s.c., Day 17, mean ± SD
  Concentration of random blood glucose: 18.91 ± 1.33 mmol/L
[1]; 10 nmol/kg s.c., Day 21, mean ± SD
  Concentration of fasting blood glucose: 7.89 ± 0.81 mmol/L
[1]; 10 nmol/kg s.c., Day 24, mean ± SD
  Concentration of random blood glucose: 21.17 ± 2.07 mmol/L
[1]; 10 nmol/kg s.c., Day 28, mean ± SD
  Concentration of fasting blood glucose: 9.41 ± 0.97 mmol/L
[1]; 10 nmol/kg s.c.
  Glycated hemoglobin: 4.71 ± 0.23 %
[1]; [4]
  Concentration of fasting blood glucose: 14.13 ± 1.32 mmol/L
  Concentration of random blood glucose: 16.73 ± 1.59 mmol/L
[1]; 30 nmol/kg s.c., Day 7, mean ± SD
  Concentration of fasting blood glucose: 6.21 ± 0.26 mmol/L
[1]; 30 nmol/kg s.c., Day 10, mean ± SD
  Concentration of random blood glucose: 15.88 ± 1.86 mmol/L
[1]; 30 nmol/kg s.c., Day 14, mean ± SD
  Concentration of fasting blood glucose: 6.40 ± 0.57 mmol/L
[1]; 30 nmol/kg s.c., Day 17, mean ± SD
  Concentration of random blood glucose: 17.30 ± 1.17 mmol/L
[1]; 30 nmol/kg s.c., Day 21, mean ± SD
  Concentration of fasting blood glucose: 7.03 ± 0.52 mmol/L
[1]; 30 nmol/kg s.c., Day 24, mean ± SD
  Concentration of random blood glucose: 17.43 ± 1.92 mmol/L
[1]; 30 nmol/kg s.c., Day 28, mean ± SD
  Concentration of fasting blood glucose: 9.68 ± 1.03 mmol/L
[1]; 30 nmol/kg s.c.
  Glycated hemoglobin: 4.53 ± 0.17 %
[1]; [5]
  Concentration of fasting blood glucose: 14.67 ± 1.46 mmol/L
  Concentration of random blood glucose: 9.11 ± 1.25 mmol/L
[1]; 100 nmol/kg s.c., Day 7, mean ± SD
  Concentration of fasting blood glucose: 5.85 ± 0.33 mmol/L
[1]; 100 nmol/kg s.c., Day 10, mean ± SD
  Concentration of random blood glucose: 12.34 ± 1.12 mmol/L
[1]; 100 nmol/kg s.c., Day 14, mean ± SD
  Concentration of fasting blood glucose: 6.25 ± 0.32 mmol/L
[1]; 100 nmol/kg s.c., Day 17, mean ± SD
  Concentration of random blood glucose: 11.89 ± 1.15 mmol/L
[1]; 100 nmol/kg s.c., Day 21, mean ± SD
  Concentration of fasting blood glucose: 6.13 ± 0.19 mmol/L
[1]; 100 nmol/kg s.c., Day 24, mean ± SD
  Concentration of random blood glucose: 11.51 ± 0.95 mmol/L
[1]; 100 nmol/kg s.c., Day 28, mean ± SD
  Concentration of fasting blood glucose: 7.89 ± 0.41 mmol/L
[1]; 100 nmol/kg s.c., listed as 18 #
  Glycated hemoglobin: 3.78%
[1]; 100 nmol/kg s.c., listed as #18
  Glycated hemoglobin: 3.78 ± 0.13 %
[2]; 3 nmol/kg
  cumulative food intake 28 days after the administration: 58.2 g
  cumulative food intake within 5 days after the administration: 7.2 g
[2]; 3 nmol/kg, day 1, listed as 18 #
  daily food intake: 0.6 g
[2]; 3 nmol/kg, day 1, listed as 18#
  daily food intake: 0.6 g
[2]; 3 nmol/kg, day 2
  daily food intake: 1.3 g
[2]; 3 nmol/kg, day 3
  daily food intake: 2 g
[2]; 3 nmol/kg, day 4
  daily food intake: 1.1 g
[2]; 3 nmol/kg, day 5
  daily food intake: 2.2 g
[2]; 3 nmol/kg, day 6
  daily food intake: 2.1 g
[2]; 3 nmol/kg, day 7
  daily food intake: 1.1 g
[2]; 3 nmol/kg, day 8
  daily food intake: 1.6 g
[2]; 3 nmol/kg, day 9
  daily food intake: 2.5 g
[2]; 3 nmol/kg, day 10
  daily food intake: 1.3 g
[2]; 3 nmol/kg, day 11
  daily food intake: 2 g
[2]; 3 nmol/kg, day 12
  daily food intake: 3 g
[2]; 3 nmol/kg, day 13
  daily food intake: 1.8 g
[2]; 3 nmol/kg, day 14
  daily food intake: 2.3 g
[2]; 3 nmol/kg, day 15
  daily food intake: 2.9 g
[2]; 3 nmol/kg, day 16
  daily food intake: 1.5 g
[2]; 3 nmol/kg, day 17
  daily food intake: 2.2 g
[2]; 3 nmol/kg, day 18
  daily food intake: 2.7 g
[2]; 3 nmol/kg, day 19
  daily food intake: 1.7 g
[2]; 3 nmol/kg, day 20
  daily food intake: 2.2 g
[2]; 3 nmol/kg, day 21
  daily food intake: 3.4 g
[2]; 3 nmol/kg, day 22
  daily food intake: 1.8 g
[2]; 3 nmol/kg, day 23
  daily food intake: 2.6 g
[2]; 3 nmol/kg, day 24
  daily food intake: 2.9 g
[2]; 3 nmol/kg, day 25
  daily food intake: 1.8 g
[2]; 3 nmol/kg, day 26
  daily food intake: 2.5 g
[2]; 3 nmol/kg, day 27
  daily food intake: 3.9 g
[2]; 3 nmol/kg, day 28
  daily food intake: 1.3 g
[2]; 10 nmol/kg
  cumulative food intake 28 days after the administration: 46.8 g
  cumulative food intake within 5 days after the administration: 3.9 g
[2]; 10 nmol/kg, day 1, listed as 18 #
  daily food intake: 0.3 g
[2]; 10 nmol/kg, day 1, listed as 18#
  daily food intake: 0.3 g
[2]; 10 nmol/kg, day 2
  daily food intake: 0.6 g
[2]; 10 nmol/kg, day 3
  daily food intake: 1.1 g
[2]; 10 nmol/kg, day 4
  daily food intake: 0.7 g
[2]; 10 nmol/kg, day 5
  daily food intake: 1.1 g
[2]; 10 nmol/kg, day 6
  daily food intake: 1.5 g
[2]; 10 nmol/kg, day 7
  daily food intake: 0.8 g
[2]; 10 nmol/kg, day 8
  daily food intake: 1.1 g
[2]; 10 nmol/kg, day 9
  daily food intake: 2 g
[2]; 10 nmol/kg, day 10
  daily food intake: 0.9 g
[2]; 10 nmol/kg, day 11
  daily food intake: 1.8 g
[2]; 10 nmol/kg, day 12
  daily food intake: 2.4 g
[2]; 10 nmol/kg, day 13
  daily food intake: 0.9 g
[2]; 10 nmol/kg, day 14
  daily food intake: 1.7 g
[2]; 10 nmol/kg, day 15
  daily food intake: 3 g
[2]; 10 nmol/kg, day 16
  daily food intake: 1.2 g
[2]; 10 nmol/kg, day 17
  daily food intake: 2.1 g
[2]; 10 nmol/kg, day 18
  daily food intake: 2.9 g
[2]; 10 nmol/kg, day 19
  daily food intake: 1.3 g
[2]; 10 nmol/kg, day 20
  daily food intake: 2 g
[2]; 10 nmol/kg, day 21
  daily food intake: 3.2 g
[2]; 10 nmol/kg, day 22
  daily food intake: 1 g
[2]; 10 nmol/kg, day 23
  daily food intake: 2.3 g
[2]; 10 nmol/kg, day 24
  daily food intake: 2.5 g
[2]; 10 nmol/kg, day 25
  daily food intake: 1.6 g
[2]; 10 nmol/kg, day 26
  daily food intake: 2.2 g
[2]; 10 nmol/kg, day 27
  daily food intake: 3.6 g
[2]; 10 nmol/kg, day 28
  daily food intake: 1 g
[2]; 100 nmol/kg
  cumulative food intake 28 days after the administration: 36.7 g
  cumulative food intake within 5 days after the administration: 1.8 g
[2]; 100 nmol/kg, day 1, listed as 18 #
  daily food intake: 0.2 g
[2]; 100 nmol/kg, day 1, listed as 18#
  daily food intake: 0.2 g
[2]; 100 nmol/kg, day 2
  daily food intake: 0.1 g
[2]; 100 nmol/kg, day 3
  daily food intake: 0.4 g
[2]; 100 nmol/kg, day 4
  daily food intake: 0.4 g
[2]; 100 nmol/kg, day 5
  daily food intake: 0.6 g
[2]; 100 nmol/kg, day 6
  daily food intake: 0.7 g
[2]; 100 nmol/kg, day 7
  daily food intake: 0.5 g
[2]; 100 nmol/kg, day 8
  daily food intake: 0.7 g
[2]; 100 nmol/kg, day 9
  daily food intake: 0.9 g
[2]; 100 nmol/kg, day 10
  daily food intake: 0.9 g
[2]; 100 nmol/kg, day 11
  daily food intake: 1.1 g
[2]; 100 nmol/kg, day 12
  daily food intake: 2 g
[2]; 100 nmol/kg, day 13
  daily food intake: 1.3 g
[2]; 100 nmol/kg, day 14
  daily food intake: 1.7 g
[2]; 100 nmol/kg, day 15
  daily food intake: 2 g
[2]; 100 nmol/kg, day 16
  daily food intake: 1 g
[2]; 100 nmol/kg, day 17
  daily food intake: 1.6 g
[2]; 100 nmol/kg, day 18
  daily food intake: 2 g
[2]; 100 nmol/kg, day 19
  daily food intake: 1.4 g
[2]; 100 nmol/kg, day 20
  daily food intake: 1.8 g
[2]; 100 nmol/kg, day 21
  daily food intake: 2.4 g
[2]; 100 nmol/kg, day 22
  daily food intake: 1.4 g
[2]; 100 nmol/kg, day 23
  daily food intake: 2.1 g
[2]; 100 nmol/kg, day 24
  daily food intake: 2.3 g
[2]; 100 nmol/kg, day 25
  daily food intake: 1.5 g
[2]; 100 nmol/kg, day 26
  daily food intake: 1.6 g
[2]; 100 nmol/kg, day 27
  daily food intake: 2.8 g
[2]; 100 nmol/kg, day 28
  daily food intake: 1.2 g
